# Experimental data: US12569471B2, “Method of treatment of CNS disorders” (Supernus Pharmaceuticals, Inc., priority 2009, dated 2026)
# Columns and labels:
# [1] = molecular target: T1, Delta2(h) opioid receptor (Homo sapiens, UniProt P41143); experiment: heterologous competition (displacement) assay, delta opioid receptor; format: binding; settings: 10 μM mazindol; [3H] [D-Ala2, D-Leu5] enkephalin 0.5 nM; 120 min/22° C.
# T1 construct: expressed in transfected cells; host or cells: CHO cell line
# Experimental: (§1) A heterologous competition assay was used to determine the relative affinity of mazindol for opioid receptors. Briefly, recombinant μ-, κ- or δ-opioid receptors were expressed in a CHO cell line. The receptors were then saturated with a tritiated receptor-specific ligand at concentrations known to be saturating. Thereupon, 10 μM mazindol was added to the cells in the presence of non-specific ligand and incubated. In this way, mazindol was allowed to “compete” with the receptor-specific ligand, such that greater displacement (i.e., % inhibition) is indicative of greater binding strength of mazindol at a given receptor. “Specific binding” refers here to the difference in the binding of the ligand to the receptors in the presence or absence of an excess of the mazindol.
# [2] = molecular target: T2, Kappa (rat) opioid receptor (Rattus norvegicus, UniProt P34975); experiment: heterologous competition (displacement) assay, kappa opioid receptor; format: binding; settings: 10 μM mazindol; [3H]U 69593 1 nM; 60 min/22° C.
# T2 construct: expressed in transfected cells; host or cells: CHO cell line
# Experimental: as §1
# human μ-opioid receptor = molecular target: T3, human μ-opioid receptor (Homo sapiens, UniProt P35372); experiment: heterologous competition (displacement) assay and IC50 determination, μ-opioid receptor; format: binding; design: binding at the μ-opioid receptor (specific binding), 1st test / binding at the μ-opioid receptor (specific binding), 2nd Test / binding at the μ-opioid receptor (specific binding), Mean: unit not given here
# T3 construct: expressed in transfected cells; host or cells: CHO cell line
# Experimental: as §1
# For this experiment, a range of mazindol concentrations was selected for the ligand blocking assay. The IC50 was determined using non-linear regression analysis of the competition curves using a Hill equation curve fitting (Y=D+[(A−D)/(1+(C/C50)nH)], where Y=specific binding, D=minimum specific binding, A=maximum specific binding, C=compound concentration, C50=IC50, and nH=slope factor). The inhibition constants Ki were calculated using Cheng Prusoff equation. Ki is defined as the concentration of the competing ligand (mazindol) that bound to half the binding sites at equilibrium in the absence of radioligand or other competitors.
# [3] = molecular target: dopamine reuptake transporter (Homo sapiens, UniProt Q01959); settings: background statement; cited from earlier work
# [4] = molecular target: noradrenergic reuptake transporter (Homo sapiens, UniProt P23975); settings: background statement; cited from earlier work
# [5] = molecular target: serotonergic reuptake transporter (Homo sapiens, UniProt P31645); settings: background statement; cited from earlier work
# H1 receptor = H1 receptor (Homo sapiens, UniProt P35367); settings: background statement; cited from earlier work
# [6] = molecular target: T4, μ-opioid receptors in the guinea pig ileum (Cavia porcellus, UniProt A0ACM8Q262); experiment: μ-opioid receptor bioassay, test for agonist activity (twitch contraction amplitude); settings: for agonist activity: decrease in twitch contraction amplitude / agonist activity: decrease in twitch contraction amplitude, +Naloxone: mean, n=2
# [7] = molecular target: T4, μ-opioid receptors in the guinea pig ileum; experiment: μ-opioid receptor bioassay, test for antagonist activity (DAMGO-induced decrease in twitch contraction amplitude); settings: for antagonist activity: response to DAMGO (1.0E−07M) in presence of compound: mean, n=2
smiles,measurement,setting,value
"OC1(c2ccc(Cl)cc2)c2ccccc2C2=NCCN21 (stereo not shown) [mazindol, 5-(p-chloropheny)-2,5-dihydro-3H-imidazo[2,1-a] isoindol-5-ol]",inhibition at 10 µM,[1],14%
same,% Inhib.,[2],33%
same,IC50,human μ-opioid receptor,690 nM
same,Ki,human μ-opioid receptor,280 nM
same,inhibition at 10 µM,"human μ-opioid receptor; 10 μM mazindol, [3H] Ala2-MePhe4-Gly5-Enkephalin 0.5 nM, 120 min/22° C.",84%
same,nH (slope factor),human μ-opioid receptor; M (h) (MOP) (agonist site),0.8
same,"binding at the μ-opioid receptor (specific binding), 1st test",human μ-opioid receptor; mazindol 1.0E−04 M,5.8
same,"binding at the μ-opioid receptor (specific binding), 2nd Test",human μ-opioid receptor; mazindol 1.0E−04 M,7.4
same,"binding at the μ-opioid receptor (specific binding), Mean",human μ-opioid receptor; mazindol 1.0E−04 M,6.6
same,"binding at the μ-opioid receptor (specific binding), 1st test",human μ-opioid receptor; mazindol 1.0E−05 M,12.6
same,"binding at the μ-opioid receptor (specific binding), 2nd Test",human μ-opioid receptor; mazindol 1.0E−05 M,13.0
same,"binding at the μ-opioid receptor (specific binding), Mean",human μ-opioid receptor; mazindol 1.0E−05 M,12.8
same,"binding at the μ-opioid receptor (specific binding), 1st test",human μ-opioid receptor; mazindol 1.0E−06 M,42.4
same,"binding at the μ-opioid receptor (specific binding), 2nd Test",human μ-opioid receptor; mazindol 1.0E−06 M,41.7
same,"binding at the μ-opioid receptor (specific binding), Mean",human μ-opioid receptor; mazindol 1.0E−06 M,42.0
same,"binding at the μ-opioid receptor (specific binding), 1st test",human μ-opioid receptor; mazindol 1.0E−07 M,83.2
same,"binding at the μ-opioid receptor (specific binding), 2nd Test",human μ-opioid receptor; mazindol 1.0E−07 M,83.2
same,"binding at the μ-opioid receptor (specific binding), Mean",human μ-opioid receptor; mazindol 1.0E−07 M,83.2
same,"binding at the μ-opioid receptor (specific binding), 1st test",human μ-opioid receptor; mazindol 3.0E−05 M,9.1
same,"binding at the μ-opioid receptor (specific binding), 2nd Test",human μ-opioid receptor; mazindol 3.0E−05 M,7.6
same,"binding at the μ-opioid receptor (specific binding), Mean",human μ-opioid receptor; mazindol 3.0E−05 M,8.3
same,"binding at the μ-opioid receptor (specific binding), 1st test",human μ-opioid receptor; mazindol 3.0E−06 M,24.7
same,"binding at the μ-opioid receptor (specific binding), 2nd Test",human μ-opioid receptor; mazindol 3.0E−06 M,26.4
same,"binding at the μ-opioid receptor (specific binding), Mean",human μ-opioid receptor; mazindol 3.0E−06 M,25.5
same,"binding at the μ-opioid receptor (specific binding), 1st test",human μ-opioid receptor; mazindol 3.0E−07 M,58.2
same,"binding at the μ-opioid receptor (specific binding), 2nd Test",human μ-opioid receptor; mazindol 3.0E−07 M,60.9
same,"binding at the μ-opioid receptor (specific binding), Mean",human μ-opioid receptor; mazindol 3.0E−07 M,59.5
same,"binding at the μ-opioid receptor (specific binding), 1st test",human μ-opioid receptor; mazindol 3.0E−08 M,102.1
same,"binding at the μ-opioid receptor (specific binding), 2nd Test",human μ-opioid receptor; mazindol 3.0E−08 M,97.5
same,"binding at the μ-opioid receptor (specific binding), Mean",human μ-opioid receptor; mazindol 3.0E−08 M,99.8
same,binding activity at dopamine reuptake transporter,[3],specific inhibitory binding activity
same,binding activity at noradrenergic reuptake transporter,[4],specific inhibitory binding activity
same,binding activity at serotonergic reuptake transporter,[5],specific inhibitory binding activity
same,binding at the H1 receptor,H1 receptor,moderately potent binding
same,agonist activity: decrease in twitch contraction amplitude,[6]; compound 1.0E−05 M,94% of the control response to DAMGO
same,agonist activity: decrease in twitch contraction amplitude,[6]; compound 1.0E−06 M,25% of the control response to DAMGO
same,agonist activity: decrease in twitch contraction amplitude,[6]; compound 1.0E−07 M,1% of the control response to DAMGO
same,"agonist activity: decrease in twitch contraction amplitude, +Naloxone",[6]; compound 3.0E−05M + Naloxone (1.0E−07M),5% of the control response to DAMGO
same,agonist activity: decrease in twitch contraction amplitude,[6]; compound 3.0E−05 M,103% of the control response to DAMGO
same,agonist activity: decrease in twitch contraction amplitude,[6]; compound 3.0E−06 M,64% of the control response to DAMGO
same,agonist activity: decrease in twitch contraction amplitude,[6]; compound 3.0E−07 M,9% of the control response to DAMGO
same,effect on twitch contraction amplitude,[6]; guinea pig ileum,concentration-dependent decrease in the twitch contraction amplitude
same,nature of the binding (agonist or antagonist) at the μ-opioid receptors,[6]; guinea pig ileum,behaves as an agonist
same,reversal of the agonist-like response by reference antagonist naloxone,[6]; guinea pig ileum,fully reversed by naloxone
same,EC50,"[6]; read-out: Agonist activity EC50 value, guinea pig ileum, linear regression of concentration-response curve",2000 nM
same,antagonist activity: response to DAMGO (1.0E−07M) in presence of compound,[7]; compound 1.0E−05 M,105% of the control response to DAMGO
same,antagonist activity: response to DAMGO (1.0E−07M) in presence of compound,[7]; compound 1.0E−06 M,100% of the control response to DAMGO
same,antagonist activity: response to DAMGO (1.0E−07M) in presence of compound,[7]; compound 1.0E−07 M,100% of the control response to DAMGO
same,antagonist activity: response to DAMGO (1.0E−07M) in presence of compound,[7]; compound 3.0E−05 M,107% of the control response to DAMGO
same,antagonist activity: response to DAMGO (1.0E−07M) in presence of compound,[7]; compound 3.0E−06 M,102% of the control response to DAMGO
same,antagonist activity: response to DAMGO (1.0E−07M) in presence of compound,[7]; compound 3.0E−07 M,100% of the control response to DAMGO
same,Antagonist activity IC50 value,[7]; guinea pig ileum,no antagonist effect
same,concentrations causing a further decrease in twitch contraction amplitude beyond DAMGO,[7]; guinea pig ileum,higher than 1.0E-06 M
same,effect on the DAMGO-induced decrease in twitch contraction amplitude,[7]; guinea pig ileum,did not reverse the DAMGO-induced decrease in twitch contraction amplitude
C[C@@H](NC(=O)[C@@H](N)Cc1ccc(O)cc1)C(=O)NCC(=O)N(C)[C@@H](Cc1ccccc1)C(=O)NCCO [DAMGO],"agonist activity: decrease in twitch contraction amplitude, +Naloxone",[6]; compound 1.0E−07M + Naloxone (1.0E−07M),−10% of the control response to DAMGO
same,agonist activity: decrease in twitch contraction amplitude,[6]; compound 1.0E−07 M,104% of the control response to DAMGO
same,agonist activity: decrease in twitch contraction amplitude,[6]; compound 1.0E−08 M,62% of the control response to DAMGO
same,agonist activity: decrease in twitch contraction amplitude,[6]; compound 1.0E−09 M,14% of the control response to DAMGO
